Source: ChEMBL document CHEMBL2311467, “Microwave-assisted synthesis of pyrimido[4,5-b][1,6]naphthyridin-4(3H)-ones with potential antitumor activity” (Eur J Med Chem, 2013)

Molecular target: Mineralocorticoid receptor (Homo sapiens, UniProt P08235)
Test: Antagonist activity at mineralocorticoid receptor (unknown origin)

Sequence of Mineralocorticoid receptor (P08235 whole entry): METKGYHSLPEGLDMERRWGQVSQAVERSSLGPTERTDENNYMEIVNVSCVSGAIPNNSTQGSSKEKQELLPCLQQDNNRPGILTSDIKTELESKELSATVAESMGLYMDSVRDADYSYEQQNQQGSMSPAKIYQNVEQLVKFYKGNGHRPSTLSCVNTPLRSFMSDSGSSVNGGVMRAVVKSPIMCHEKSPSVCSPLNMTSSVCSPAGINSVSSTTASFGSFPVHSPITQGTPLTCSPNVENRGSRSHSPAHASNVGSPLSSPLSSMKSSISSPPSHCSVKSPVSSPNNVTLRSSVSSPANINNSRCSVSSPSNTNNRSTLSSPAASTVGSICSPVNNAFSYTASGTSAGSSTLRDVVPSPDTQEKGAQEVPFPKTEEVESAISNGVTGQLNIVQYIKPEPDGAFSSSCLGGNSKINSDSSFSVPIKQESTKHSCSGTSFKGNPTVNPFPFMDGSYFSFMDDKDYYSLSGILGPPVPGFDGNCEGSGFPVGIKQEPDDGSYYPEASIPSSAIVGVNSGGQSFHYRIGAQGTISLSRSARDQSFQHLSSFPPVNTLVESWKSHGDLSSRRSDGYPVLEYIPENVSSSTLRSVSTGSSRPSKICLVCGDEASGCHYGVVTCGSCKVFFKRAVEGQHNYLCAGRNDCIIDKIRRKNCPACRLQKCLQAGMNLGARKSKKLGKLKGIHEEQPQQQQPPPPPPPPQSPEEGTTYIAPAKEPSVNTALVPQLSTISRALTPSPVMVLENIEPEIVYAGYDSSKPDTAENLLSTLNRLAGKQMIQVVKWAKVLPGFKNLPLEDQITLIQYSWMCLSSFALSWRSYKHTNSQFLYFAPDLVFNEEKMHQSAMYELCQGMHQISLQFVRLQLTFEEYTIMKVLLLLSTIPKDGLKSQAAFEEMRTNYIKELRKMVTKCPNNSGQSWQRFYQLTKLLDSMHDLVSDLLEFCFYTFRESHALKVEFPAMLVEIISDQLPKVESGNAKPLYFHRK

Question: `CCOc1ncc(C)c2c1[C@H](c1ccc(C#N)cc1OC)C(C(N)=O)=C(C)N2` [FINERENONE] was tested. Which IC50 did it give?
Answer: 0.018 µM
